Measurements reported in PubChem BioAssay (NCI).
Where “and” joins values, the source holds several entries; their conditions need not be identical. Identical values can stand only once.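 In this assay, cells in 96-well plates receive the compound at five concentrations for 48 hours. Endpoints are linearly interpolated between the surrounding concentrations. The concentration for 50% growth inhibition is given as GI50. TGI marks complete inhibition of growth.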

Key:
Assay in all cases: NCI anticancer screen, dose series, 48 h
DMS 273 small cell lung = test system: DMS 273 small cell lung
M19-MEL melanoma = test system: M19-MEL melanoma
DLD-1 colon = test system: DLD-1 colon
LXFL 529 NSCLC = test system: LXFL 529 NSCLC
XF 498 CNS = test system: XF 498 CNS
DMS 114 small cell lung = test system: DMS 114 small cell lung
HOP-18 NSCLC = test system: HOP-18 NSCLC
MDA-N = test system: MDA-N
RXF-631 renal = test system: RXF-631 renal

Cc1ccc(S(=O)(=O)NC(=O)NC23CC4CC(CC(F)(C4)C2)C3)cc1
TGI (DMS 273 small cell lung): > 100 µM
TGI (M19-MEL melanoma): > 100 µM
TGI (DLD-1 colon): > 100 µM
TGI (LXFL 529 NSCLC): > 100 µM
TGI (XF 498 CNS): > 100 µM
TGI (DMS 114 small cell lung): > 100 µM

CN1NC2(CCCCC2)ON=C1c1ccccc1
TGI (HOP-18 NSCLC): > 100 µM
TGI (DLD-1 colon): > 100 µM
TGI (DMS 114 small cell lung): > 100 µM

CC(=O)O[C@H]1CC[C@@]2(C)C(=CC[C@H]3C4=CC=C(C(C)=O)[C@@]4(C)CCC32)C1 (stereo not given in full)
TGI (HOP-18 NSCLC): > 100 µM
TGI (DMS 273 small cell lung): > 100 µM
TGI (M19-MEL melanoma): > 100 µM
TGI (DLD-1 colon): > 100 µM
TGI (LXFL 529 NSCLC): > 100 µM

O=C(O)/C(=C/c1c(O)ccc2ccccc12)c1csc(-c2nc(/C(=C\c3c(O)ccc4ccccc34)C(=O)O)cs2)n1
TGI (M19-MEL melanoma): 19.9 µM
TGI (DLD-1 colon): 35.5 µM
TGI (LXFL 529 NSCLC): 29.8 µM
TGI (DMS 114 small cell lung): 25.5 µM

COc1ccc2c(c1OC)C1=C(C2=O)c2cc3c(cc2CCN1)OCO3
TGI (HOP-18 NSCLC): > 100 µM
TGI (DMS 273 small cell lung): 52.9 µM
TGI (M19-MEL melanoma): > 100 µM
TGI (DLD-1 colon): > 100 µM
TGI (LXFL 529 NSCLC): > 100 µM
TGI (XF 498 CNS): 87.2 µM
TGI (DMS 114 small cell lung): 56.7 µM

CCOc1cc2c(NCCCN(CCO)CCO)ncnc2c(OCC)c1OCC
TGI (MDA-N): > 100 µM

CC(C)(C)NCc1cc(C(C)(C)C)cc(-c2ccc(Cl)cc2)c1O
TGI (MDA-N): 31.4 µM

COc1cc2noc(-c3ccccc3)c2cc1OC
TGI (HOP-18 NSCLC): > 100 µM
TGI (DMS 273 small cell lung): > 100 µM
TGI (M19-MEL melanoma): > 100 µM
TGI (RXF-631 renal): > 100 µM
TGI (DLD-1 colon): > 100 µM
TGI (LXFL 529 NSCLC): > 100 µM
TGI (DMS 114 small cell lung): > 100 µM

C[C@]1(CO)[C@H]2CC[C@@]34C=C[C@@](CO)(CC[C@H]3[C@]2(C)CC[C@H]1O)C4
TGI (MDA-N): > 100 µM

COC1OC(CO)C(O)C(O)C1Br (stereo not given)
TGI (HOP-18 NSCLC): > 100 µM
TGI (DMS 273 small cell lung): > 100 µM
TGI (M19-MEL melanoma): > 100 µM
TGI (RXF-631 renal): > 100 µM
TGI (DLD-1 colon): > 100 µM
TGI (LXFL 529 NSCLC): > 100 µM
TGI (XF 498 CNS): > 100 µM

O=c1[nH]c(=O)n(C2OC(CO)C(O)C2O)c2c1CCCC2 (stereo not given)
TGI (MDA-N): > 100 µM

Cn1c(=O)nc2n(-c3cccc(F)c3)c3ccccc3nc-2c1=O
TGI (HOP-18 NSCLC): > 100 µM
TGI (DMS 273 small cell lung): 32.8 µM
TGI (M19-MEL melanoma): 5.3 µM
TGI (DLD-1 colon): > 100 µM
TGI (LXFL 529 NSCLC): > 100 µM

NC(=O)N/N=C/C(/C=N/NC(N)=O)[N+](=O)[O-]
TGI (M19-MEL melanoma): > 100 µM
TGI (RXF-631 renal): > 100 µM
TGI (DLD-1 colon): > 100 µM
TGI (LXFL 529 NSCLC): > 100 µM
TGI (XF 498 CNS): > 100 µM
TGI (DMS 114 small cell lung): > 100 µM

C=C=C(CC)C(C(=O)OC)N(CC)CC (stereo not given)
TGI (HOP-18 NSCLC): > 100 µM
TGI (M19-MEL melanoma): > 100 µM
TGI (RXF-631 renal): > 100 µM
TGI (DLD-1 colon): > 100 µM
TGI (LXFL 529 NSCLC): > 100 µM
TGI (XF 498 CNS): > 100 µM
TGI (DMS 114 small cell lung): > 100 µM

CN1c2ccccc2N(C)C2C1N(C)c1ccccc1N2C (stereo not given)
TGI (DMS 273 small cell lung): > 100 µM
TGI (M19-MEL melanoma): 32.7 µM
TGI (RXF-631 renal): > 100 µM
TGI (DLD-1 colon): 62.6 µM
TGI (LXFL 529 NSCLC): > 100 µM
TGI (XF 498 CNS): 21.7 µM
TGI (DMS 114 small cell lung): 26 µM

C=C1C(=O)OC2CC1C(O)C/C(C)=C/CC/C(C)=C/C(O)CC2C (stereo not given)
TGI (MDA-N): 9.53 µM

CC[C@@]1(O)C(=O)NCc2c1cc1n(c2=O)Cc2cc3c(N)cccc3nc2-1
GI50 (MDA-N): 3.4 µM
TGI (MDA-N): 28.1 µM

COc1cc2c3c(c1)c1cc(OC)c(OC)cc1c[n+]3CC2
GI50 (MDA-N): > 100 µM
TGI (MDA-N): 50 µM and > 100 µM

CO/C1=C\C(C)=C\C(C)C(O)C(C)C/C(C)=C/C=C/C(OC)C(C(C)C(O)C(C)C2(O)CC(O)C(C)C(C(C)C)O2)OC1=O (stereo not given)
TGI (HOP-18 NSCLC): 21.9 µM
TGI (DMS 273 small cell lung): 0.0107 µM and 0.0233 µM
TGI (M19-MEL melanoma): 3.12 µM
TGI (DLD-1 colon): 21.7 µM
GI50 (XF 498 CNS): 0.0122 µM
TGI (XF 498 CNS): 0.0849 µM and 0.0294 µM
TGI (DMS 114 small cell lung): 10.3 µM

CCOC(=O)C1(Cc2ccccc2)CCCCCN1 (stereo not given)
TGI (HOP-18 NSCLC): > 100 µM
TGI (DMS 273 small cell lung): > 100 µM
TGI (M19-MEL melanoma): > 100 µM
TGI (RXF-631 renal): > 100 µM
TGI (DLD-1 colon): > 100 µM
TGI (LXFL 529 NSCLC): > 100 µM
TGI (DMS 114 small cell lung): > 100 µM

COc1c(C(=O)O)oc2c(OC)cccc12
TGI (HOP-18 NSCLC): > 100 µM
TGI (DMS 273 small cell lung): > 100 µM
TGI (M19-MEL melanoma): > 100 µM
TGI (LXFL 529 NSCLC): > 100 µM
TGI (DMS 114 small cell lung): > 100 µM

O=C1C[C@@H]2C(COC(=O)c3ccccc3)N(OCc3ccccc3)C[C@@H]2O1 (stereo not given in full)
TGI (HOP-18 NSCLC): > 100 µM
TGI (DMS 273 small cell lung): > 100 µM
TGI (M19-MEL melanoma): > 100 µM
TGI (RXF-631 renal): > 100 µM
TGI (DLD-1 colon): > 100 µM
TGI (LXFL 529 NSCLC): > 100 µM
TGI (DMS 114 small cell lung): > 100 µM

Cc1c(C(=O)c2ccccc2C(=O)O)c2ccccc2n1C
TGI (DMS 273 small cell lung): > 100 µM
TGI (M19-MEL melanoma): > 100 µM
TGI (DLD-1 colon): > 100 µM
TGI (LXFL 529 NSCLC): > 100 µM
TGI (XF 498 CNS): > 100 µM
TGI (DMS 114 small cell lung): > 100 µM
